Experimental data reported in ChEMBL document CHEMBL4665742 (J Nat Prod, 2020).
Activity calls are given as the source filed them. No cut-off for these calls is given here.

Experiments:
[1] = system: SK-N-AS; assay: Antiproliferative activity against human SK-N-AS cells after 24 hrs; type: functional
[2] = system: SK-N-FI; assay: Antiproliferative activity against human SK-N-FI cells after 24 hrs; type: functional
[3] = system: SK-N-BE(2)-M17; assay: Antiproliferative activity against human SK-N-BE(2)-M17 cells after 24 hrs; type: functional
[4] = (§1) Antiproliferative activity against human Kelly cells after 24 hrs; type: functional; conditions: read-out: ED50 (the source's name)
[5] = system: Kelly; assay: as §1; type: functional
[6] = system: Kelly; assay: Induction of apoptosis in human Kelly cells assessed as PARP cleavage at 12.5 to 50 uM after 6 to 24 hrs by […]; type: functional, cell-based; conditions: dose microM 12.5-50, time hrs 6-24
[7] = system: SK-N-FI; assay: Induction of apoptosis in human SK-N-FI cells assessed as PARP cleavage at 12.5 to 50 uM after 6 to 24 hrs by […]; type: functional, cell-based; conditions: dose microM 12.5-50, time hrs 6-24
[8] = system: SK-N-BE(2)-M17; assay: Induction of apoptosis in human SK-N-BE(2)-M17 cells assessed as PARP cleavage at 12.5 to 50 uM after 6 to 24 hrs by […]; type: functional, cell-based; conditions: dose microM 12.5-50, time hrs 6-24
[9] = system: SK-N-AS; assay: Induction of apoptosis in human SK-N-AS cells assessed as PARP cleavage at 12.5 to 50 uM after 6 to 24 hrs by […]; type: functional, cell-based; conditions: dose microM 12.5-50, time hrs 6-24
[10] = read-out: ED50 (the source's name)

SMILES	Activity [1]	Activity [2]	Activity [3]	EC50 [4] [µM]	Activity [5]	Activity [6]	EC50 [1, 10] [µM]	Activity [7]	EC50 [2, 10] [µM]	Activity [8]	Activity [9]	EC50 [3, 10] [µM]
NCCCC(N)(C(=O)O)C(F)F (stereo not given)	Dose-dependent effect	Dose-dependent effect	Dose-dependent effect	–	–	–	–	–	–	–	–	–
C=CCS[S+]([O-])CC=C (stereo not given) [ALLICIN]	Dose-dependent effect	Dose-dependent effect	Dose-dependent effect	9.21	Dose-dependent effect	Active	19.5	Active	18.1	Active	Active	10.3
